Assay type in all cases: biochemical
Assay [1] in a line: Catalase (pseudo CAT) activity from change of absorbance at 230 nm of H2O2. To be noted: for pseudo CAT: Table 1, NADH without Hb, calculated relative to Hb conc. of 1.5 mM (10 g/dL); for catalase / CAT pseudo activity (in words): Examples 1 and 7. The protocol: (§1) The activity of NADH-cytochrome b5 reductase in the above-mentioned purified and concentrated HbCO solution was determined as NADH-ferricyanide reductase activity according to Beutler, E. above. Diluted Hb samples comprising the enzyme to be measured is mixed with a buffer comprising NADH. The mixed solutions were left standing for 10 minutes at 30° C., and then potassium ferricyanide (K3Fe (CN)6), the enzyme substrate, was added to start the enzyme reaction. The decrease of difference of absorbance at 340 nm, a characteristic absorption of NADH, per minute was measured to determine activity unit E (IU/gHb). […] It was reasoned that the heat-labile NADH-cytochrome b5 reductase was eliminated as denatured and insoluble, or denatured and inactivated, due to the introduction of heat treatment during the purifying step. In addition, activities of NADPH metHb reductase and NADPH diaphorase, which correspond to NADPH-flavin reductase are also determined by the above-mentioned methods according to Beutler, E. Diluted blood samples comprising the enzyme to be measured is mixed with a buffer comprising NADPH. The mixed solutions were left standing for 10 minutes at 37° C., and then methylene bleu (MeBl), the enzyme substrate, was added to start the enzyme reaction. The decrease of difference of absorbance at 340 nm, a characteristic absorption of NADPH, per minute was measured to determine activity unit E (IU/gHb). […] Catalase activity of the purified HbCO solution was determined from the change of the absorbance at 230 nm, the absorption wavelength of H2O2, according to Beutler, E. (RED CELL METABOLISM: A MANUAL OF BIOCHEMICAL METHOD, Grune &Stratton, Inc. pp. 105-106 (1987)). […] Pyrogallol was used for measurement of SOD activity (Marklund, S. and Marklund, G., Eur. J. Biochem. 47, 469-474 (1974); Roth, E. F. Jr. and Gilbert, H. S., Anal. Biochem. 137, 50-53(1984)). Pyrogallol is oxidized with oxygen to generate superoxide, and further reacted to generate a yellow dye with absorbance at 420 nm. SOD inhibits this reaction. SOD enzyme activity was determined based on this inhibitory activity. Analyzed specimens were solutions of purified HbO2, HbCO, metHb and solutions thereof further comprising NADH or L-tyrosine In addition, enzyme activity of crude SFHb solution was also determined as a control. […] When NADH and HbO2 were coexisted, however, high CAT and SOD pseudo activities (Table 1). […] The pseudo activity was detected when NADH alone was present, however, the activity was about a tenth ( 1/10) compared with when HbO2 was coexisted. […] There were results showing that this pseudo activity increased as more NADH was added.

A short description of assay [2]: SOD (pseudo SOD) activity, pyrogallol method. To be noted: for pseudo SOD: Table 1, pyrogallol, absorbance at 420 nm, Hb form and antioxidant conc. per entry; for SOD / SOD pseudo activity (in words): Examples 1 and 7. The protocol:
as §1

In a further assay the target is T1, HbO2 (Homo sapiens, UniProt P68871+P69905).
T1 construct: The Hb released by hemolysis was filtered and collected, with the red blood cell membrane components (stroma) separated and removed; from tissue; host or cells: human red blood cells (expired donated blood); heat-treated, nanofiltered, purified and concentrated HbCO, photoconverted to HbO2
T1 sequence (P69905 2-142 limits assumed): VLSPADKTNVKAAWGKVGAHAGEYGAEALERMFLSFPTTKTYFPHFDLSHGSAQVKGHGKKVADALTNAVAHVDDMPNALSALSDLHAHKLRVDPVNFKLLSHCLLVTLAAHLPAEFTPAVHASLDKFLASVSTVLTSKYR
T1 sequence (P68871 2-147 limits assumed): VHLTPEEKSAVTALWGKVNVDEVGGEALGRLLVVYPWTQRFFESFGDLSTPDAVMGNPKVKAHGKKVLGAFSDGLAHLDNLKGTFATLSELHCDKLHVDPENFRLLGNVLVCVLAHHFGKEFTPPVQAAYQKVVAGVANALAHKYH
Put plainly: Screening of suppressing effect of compounds against autoxidation of HbO2. Conditions: for metHb conversion (%): HbO2 10 g/dL, antioxidant 1 g/dL, 37° C., 24 hours. The procedure:
NADH was purchased from Oriental Yeast Co. Ltd., and all the rest were purchased from Sigma-Aldrich (St. Louis, Mo., USA). HbCO solution was transferred to an eggplant flask and irradiated with visible light (halogen lamp; LPL Videeoligtvl-302, LPLCO. Ltd., Tokyo, Japan) under oxygen gas flow to convert to HbO2. […] The conversion ratios to metHb were determined from the visible absorption spectrum. The measurement of spectrum between 300 nm to 500 nm was conducted using a spectrophotometer (V-660, Japan Spectroscopic Company (JASCO)) mounted with a device to control the light scattering to the minimum (an integrating sphere). The atmosphere inside of a Thunberg cuvette was replaced with nitrogen gas and the conversion ratios to metHb were determined from the ratios of absorbance at 405 nm (λmax of metHb) and 430 nm (λmax of deoxyHb).

`NC(=O)C1=CN([C@@H]2O[C@H](COP(=O)(O)OP(=O)(O)OC[C@H]3O[C@@H](n4cnc5c(N)ncnc54)[C@H](O)[C@@H]3O)[C@@H](O)[C@H]2O)C=CC1` [Entry 12, NADH]: the “pseudo CAT” value in assay [1] is given as 19.2 × 10^4 *) IU/g Hb. Moreover, the “pseudo SOD” value in assay [2] was 0.6 × 10^2 U/g Hb.

`NC(=O)C[C@H](N)C(=O)O` [L-asparagine]: on HbO2, the “metHb conversion (%)” value is 40%.

For `NCCCC[C@H](N)C(=O)O` [L-lysine], the “metHb conversion (%)” value at HbO2 is given as 34%.

For the compound `O=C1O[C@H]([C@@H](O)CO)C([O-])=C1O.[Na+]` [sodium L-Ascorbate], on HbO2, the “metHb conversion (%)” value turned out to be 37%.

As for `O=C[C@H](O)[C@@H](O)[C@H](O)[C@H](O)CO` [D-glucose], the “metHb conversion (%)” value on HbO2 is given as 36%.

As for “13: oxyhemoglobin 1.5 mM prepared from the purified Hb solution, no antioxidant [Entry 13]”, the “catalase / CAT pseudo activity (in words)” value in assay [1] is “no enzyme activity was found”. Besides, the “SOD / SOD pseudo activity (in words)” value in assay [2] was “no enzyme activity was found”.

With `OCC(O)CO` [glycerol], the “metHb conversion (%)” value at HbO2 was 38%.

`N[C@@H](Cc1ccc(O)cc1)C(=O)O` [L-tyrosine]: the “metHb conversion (%)” value at HbO2 is 38%.

As to “15: carbonyl Hb 1.5 mM prepared from the purified Hb solution, no antioxidant [Entry 15]”, the “catalase / CAT pseudo activity (in words)” value in assay [1] was “no enzyme activity was found”. The “SOD / SOD pseudo activity (in words)” value in assay [2] is “no enzyme activity was found”.

Consider `Nc1ncnc2c1ncn2[C@@H]1O[C@H](COP(=O)(O)OP(=O)(O)OP(=O)(O)O)[C@@H](O)[C@H]1O` [ATP], for which the “metHb conversion (%)” value at HbO2 worked out at 44%.

Take `O=C([O-])[C@H](O)[C@@H](O)[C@H](O)[C@H](O)CO.[Na+]` [sodium gluconate]: the “metHb conversion (%)” value on HbO2 is on record as 49%.

`NC(=O)CC[C@H](N)C(=O)O` [L-glutamine]: the “metHb conversion (%)” value on HbO2 came to 43%.

For the compound `NC(=O)C1=CN([C@@H]2O[C@H](COP(=O)(O)OP(=O)(O)OC[C@H]3O[C@@H](n4cnc5c(N)ncnc54)[C@H](O)[C@@H]3O)[C@@H](O)[C@H]2O)C=CC1` [Entry 10, NADH], in assay [1], the “pseudo CAT” value is listed as 3.6 × 10^4 *) IU/g Hb. Also, the “pseudo SOD” value in assay [2] is listed as 1.1 × 10^2 U/g Hb.

Regarding `N[C@@H](Cc1c[nH]cn1)C(=O)O` [L-histidine], on HbO2, the “metHb conversion (%)” value was determined as 32%.

For `O=c1c(O)c(-c2ccc(O)c(O)c2)oc2cc(O)cc(O)c12` [quercetin], at HbO2, the “metHb conversion (%)” value came to 42%.

Consider `CC1=C(/C=C/C(C)=C/C=C/C(C)=C/C=C/C=C(C)/C=C/C=C(C)/C=C/C2=C(C)C(=O)[C@@H](O)CC2(C)C)C(C)(C)C[C@H](O)C1=O` [astaxanthin], for which the “metHb conversion (%)” value at HbO2 was determined as 39%.

Regarding `N[C@@H](Cc1c[nH]c2ccccc12)C(=O)O` [L-tryptophan], the “metHb conversion (%)” value on HbO2 is reported as 38%.

For the compound “14: methemoglobin 1.5 mM prepared from the purified Hb solution, no antioxidant [Entry 14]”, in assay [1], the “catalase / CAT pseudo activity (in words)” value was “no enzyme activity was found”. In addition, the “SOD / SOD pseudo activity (in words)” value in assay [2] was “no enzyme activity was found”.

For `N[C@@H](CS)C(=O)O` [L-cysteine], at HbO2, the “metHb conversion (%)” value is on record as 34%.

Turning to `NC(=O)C1=CN([C@@H]2O[C@H](COP(=O)(O)OP(=O)(O)OC[C@H]3O[C@@H](n4cnc5c(N)ncnc54)[C@H](OP(=O)(O)O)[C@@H]3O)[C@@H](O)[C@H]2O)C=CC1` [NADPH, nicotinamide adenine dinucleotide phosphate (NADPH)], at HbO2, the “metHb conversion (%)” value came out at 37%. Moreover, on HbO2 (coexisting with HbO2 at 37° C. for 26 hours), the “effect to suppress metHb conversion compared with NADH” value is “inferior to that of NADH”.

`NC(=O)C1=CN([C@@H]2O[C@H](COP(=O)(O)OP(=O)(O)OC[C@H]3O[C@@H](n4cnc5c(N)ncnc54)[C@H](O)[C@@H]3O)[C@@H](O)[C@H]2O)C=CC1` [Entry 11, NADH]: in assay [1], the “pseudo CAT” value is listed as 4.1 × 10^4 *) IU/g Hb. The “pseudo SOD” value in assay [2] is listed as 1.3 × 10^2 U/g Hb.

`NC(=O)c1cccnc1` [nicotinamide]: the “metHb conversion (%)” value at HbO2 was 34%.

As to `N=C(N)NCCC[C@H](N)C(=O)O` [L-arginine], the “metHb conversion (%)” value at HbO2 is given as 38%.

In the case of `CSCC[C@H](N)C(=O)O` [L-methionine], the “metHb conversion (%)” value at HbO2 was found to be 41%.

These data come from US20190076507A1, “Artificial Red Blood Cell Having Ability to Inhibit Conversion of Hemoglobin into Methemoglobin” (Public University Corporation Nara Medical University, priority 2016, published 2019).
